Where two headings read alike, the source gives them in different places. Marks after values point to notes of the source that are not given here.
Experiments:
[1] = system: human gastric cancer cells-803 (MGC-803); test: MTT antiproliferative assay, MGC-803; type: cell-based; conditions: read-out: Effect against cell viability (IC50), MGC-803
Protocol: (§1) All newly synthesized acridinyl derivatives (4–6) were screened for their anticancer activities in comparison to the reference compounds, 5-FU and cis-platinum. Compounds 4–6 were tested for their in vitro antitumor activities against HFF, MGC-803, BEL-7404, NCI-H460, and T24 tumor cell lines, and human normal liver cells (LO2), and the results are shown in Table 1. Most of the compounds had strong selective potency against MGC-803 and T24 cancer cells. […] In the T24 cell line assay, many compounds, especially the series of compound 4, had significant activity against T24. This implies that there is a significant increase in potency after the introduction of the aroyl thiourea group. […] To our delight, most 1,2,4-triazolethiones (5) and 1,2,4-thiadiazoles (6) have low toxicity to LO2 compared with the positive control.
(§2) Test samples, including compounds 4–6 and commercial classical anticancer drugs (5-FU and cis-platinum), were screened for their anti-cancer activity against HFF human foreskin fibroblast cells, MGC-803 human gastric cancer cells, BEL-7404 human hepatocellular carcinoma cells, NCI-H460 human large cell carcinoma cells, and T24 human bladder carcinoma cells using the 3-(4,5-dimethylthiazol-2-yl)-2,5-diphenyltetrazoliumbromide (MTT) assay method cited in the literature. The initial concentration of all the test samples was 100 μg/mL, which was serially diluted in complete medium with ten-fold dilutions to give six concentrations per compound. Their cytotoxicity was determined in 96-well flat bottomed microtiter plates. All the test samples were tested in triplicate. The results were expressed as the drug concentration that inhibited cell growth by 50% as compared to the controls (IC50). The IC50 values were calculated from regression lines obtained from the percent cell growth inhibition plotted as a function of the logarithm of the dose.

[2] = system: large cell lung cancer cells (NCI-H460); test: MTT antiproliferative assay, NCI-H460; type: cell-based, human; conditions: read-out: Effect against cell viability (IC50), NCI-H460
Protocol: as §1, §2

[3] = system: bladder cancer cells (T24); test: MTT antiproliferative assay, T24; type: cell-based, human; conditions: read-out: Effect against cell viability (IC50), T24
Protocol: as §1, §2

[4] = system: subintestinal veins (SIVs) in zebrafish embryos; test: Zebrafish angiogenesis assay (subintestinal veins, NBT/BCIP staining); type: in vivo; conditions: 1 mg/mL; for area of blood vessels: additional blood vessels were formed on the blood vessel edge
Excerpt: Currently, the zebrafish has emerged as a valuable model organism to substitute traditional models for studying angiogenesis inhibitors. The genes of zebrafish show 70–80% similarity to humans, and the vascular structure of zebrafish has high similarity to that of other vertebrates. Therefore, the subintestinal veins (SIVs) in the zebrafish embryos are used as evaluation indicators for anti-angiogenesis inhibitors. In this study, NBT/BCIP vascular staining was used to observe the angiogenesis effect of representative drugs (4h, 4f, 5d, 5h, 6g and 6h) in a zebrafish model. […] Compared with the blank control group, the area of the meshed pattern vessel and the number of vascular branches in the network decreased after the administration of compounds 4h, 5d, 5h and 6h.
The 24 hpf zebrafish embryos were dechorionated with a 1 gL^−1 pronase treatment and maintained in distilled water in 12-well cell culture plates (each well contained 20 embryos). A negative control group containing zebrafish embryos in distilled water and a vehicle treatment group that was treated with 2% dimethyl sulfoxide (DMSO) were prepared. The anti-angiogenic compounds were diluted to 1 mg/mL. After incubating at 28 °C for […], the embryos were immersed in 4% paraformaldehyde and dehydrated by gradient ethanol. Subsequently, the embryos were balanced in NTMT buffer (5 M NaCl + 1 M Tris [pH 9.0–9.5] + 1 M MgCl2+ 10% Tween), and nitrotetrazolium blue chloride (NBT) and p-toluidine salt (BCIP) staining were performed. To evaluate the effect of compounds on the angiogenesis of zebrafish embryos, the growth of embryonic sub-intestinal veins (SIVs) at 72 hpf was observed using an IX71 Olympus microscope (Hamburger, Germany). The length of the SIVs was calculated using the image J 1.8.0 software (Bethesda, MD, USA).

[5] = system: human foreskin fibroblasts (HFF); test: MTT antiproliferative assay, HFF; type: cell-based; conditions: read-out: Effect against cell viability (IC50), HFF
Protocol: as §1, §2

zebrafish embryos = system: zebrafish embryos; parameters: mortality rate of zebrafish embryos: dose or concentration left out as unconfirmed; conditions: for MAR (malformation rate) / MOR (mortality rate): zebrafish embryos 72 hpf
Protocol: In this experiment, 2% DMSO was used to dissolve the target products, and the abnormal rate (MAR) and mortality rate (MOR) of zebrafish embryos (72 hpf) were used for statistics.
The zebrafish embryos were collected at 6 hpf and randomly divided into naive control (embryos maintained in distilled water), vehicle control (embryos treated with 2% DMSO), and drug groups. Stock solutions of all drugs were prepared in 2% DMSO as a solubilizing agent and diluted to three concentrations (0.5 mg/mL, 1 mg/mL, and 2 mg/mL). Each group had 20 embryos per test concentration. […] Each compound was evaluated in three independent biological experiments.

[6] = system: hepatocellular carcinoma bel-7404 (BEL-7404); test: MTT antiproliferative assay, BEL-7404; type: cell-based, human; conditions: read-out: Effect against cell viability (IC50), BEL-7404
Protocol: as §1, §2

[7] = system: human normal liver cells (LO2); test: Cytotoxicity against normal liver cells LO2; type: cell-based; conditions: MTT, read-out: Effect against cell viability (IC50), LO2
Protocol: as §1, §2

[8] = target: T1, DNA topoisomerase I (topo I) (Bos taurus, UniProt F1MN93); test: Topo I inhibitory activity (pBR322); type: biochemical; conditions: at 100 µM
T1 construct: purchased Takara Bio Inc. (Shiga, Japan)
T1 sequence (F1MN93 1-767): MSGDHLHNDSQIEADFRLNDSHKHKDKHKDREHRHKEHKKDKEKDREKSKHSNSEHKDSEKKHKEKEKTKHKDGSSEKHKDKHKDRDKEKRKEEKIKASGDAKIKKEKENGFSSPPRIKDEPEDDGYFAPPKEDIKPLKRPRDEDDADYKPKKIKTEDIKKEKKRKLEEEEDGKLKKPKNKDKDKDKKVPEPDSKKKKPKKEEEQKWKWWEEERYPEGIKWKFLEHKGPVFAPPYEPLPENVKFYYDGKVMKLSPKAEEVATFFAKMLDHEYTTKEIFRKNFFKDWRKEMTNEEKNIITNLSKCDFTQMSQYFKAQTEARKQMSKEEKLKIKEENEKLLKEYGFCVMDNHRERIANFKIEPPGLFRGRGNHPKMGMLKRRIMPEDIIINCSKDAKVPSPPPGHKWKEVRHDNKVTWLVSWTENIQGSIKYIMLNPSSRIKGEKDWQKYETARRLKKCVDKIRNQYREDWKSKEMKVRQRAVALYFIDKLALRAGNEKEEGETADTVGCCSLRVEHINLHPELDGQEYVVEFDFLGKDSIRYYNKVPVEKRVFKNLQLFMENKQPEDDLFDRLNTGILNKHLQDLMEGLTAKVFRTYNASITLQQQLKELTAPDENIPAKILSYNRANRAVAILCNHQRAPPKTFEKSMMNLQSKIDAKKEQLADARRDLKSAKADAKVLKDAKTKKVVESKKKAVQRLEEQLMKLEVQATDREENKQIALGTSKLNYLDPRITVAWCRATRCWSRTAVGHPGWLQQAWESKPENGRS

Structure (SMILES)	IC50 ([1]; Homo sapiens, MGC-803, MTT) [µM]	melting point [°C]	IC50 ([2]; Homo sapiens) [µM]	IC50 ([3]; Homo sapiens) [µM]	IC50 ([6]; Homo sapiens) [µM]	IC50 ([1]; MTT) [µM]	IC50 [2] [µM]	IC50 [3] [µM]	IC50 [5] [µM]	IC50 [6] [µM]	IC50 [7] [µM]	IC50 ([5]; Homo sapiens, Fibroblast) [µM]	IC50 ([7]; Homo sapiens) [µM]	further results
COc1ccc2[nH]c3ccccc3c(=NC(=S)NNC(=O)c3ccncc3)c2c1 [4a, 1-2′-methoxyl acridinyl-3-4′-pyridinamide thiourea]						10.9 ± 1.82	36.4 ± 3.12	> 100	75.8 ± 3.52	26.9 ± 2.58	22 ± 1.71			area of blood vessels ([4]; zebrafish embryos): could reduce the area of blood vessels; MAR (malformation rate) (zebrafish embryos; 1 mg/mL): 85% ^c; MOR (mortality rate) (zebrafish embryos; 1 mg/mL): 15% ^c; MAR (malformation rate) (zebrafish embryos; 1.5 mg/mL): 60% ^c; MOR (mortality rate) (zebrafish embryos; 1.5 mg/mL): 40% ^c; MAR (malformation rate) (zebrafish embryos; 2 mg/mL): 55% ^c; MOR (mortality rate) (zebrafish embryos; 2 mg/mL): 45% ^c; total mortality and malformation rate (zebrafish embryos; zebrafish embryos, 2.0 mg.L^−1): 100%
COc1ccc2[nH]c3ccccc3c(=NC(=S)NNC(=O)c3ccc(Cl)cc3)c2c1 [4e]						25.6 ± 1.97	73.2 ± 3.67	10.3 ± 1.07	66.8 ± 4.52	25.9 ± 2.17	10.2 ± 1.12			topo I inhibitory activity [8]: potent
COc1ccc(-c2n[nH]c(=S)n2-c2c3ccccc3nc3ccc(OC)cc23)cc1 [5c, 4-(2-methoxyacridin-9-yl)-5-(4-methoxyphenyl)-2,4-dihydro-3H-1,2,4-triazole-3-thione]	15.1 ± 0.98	262 to 267	36.5 ± 3.92	29.3 ± 1.91	28.7 ± 2.24							75.5 ± 2.92	> 100	topo I inhibitory activity [8]: potent
COc1ccc(-n2c(-c3c4ccccc4nc4ccc(C)cc34)n[nH]c2=S)cc1 [5h, 4-(4-methoxyphenyl)-4-(2-methylacridin-9-yl)-2,4-dihydro-3H-1,2,4-triazole-3-thione]						10.9 ± 0.97	26.3 ± 2.51	11.2 ± 1.16	68.1 ± 2.64	40.3 ± 2.06	37.7 ± 2.47			reduction in the vessel length (SIVs) compared to the mean vessel length for the controls ([4]; 72 hpf zebrafish embryos): ~50%; area of the meshed pattern vessel and number of vascular branches in the network ([4]; zebrafish embryos, compared with blank control group): decreased; mortality rate of zebrafish embryos (zebrafish embryos): ~0%; malformation rate of zebrafish embryos (zebrafish embryos; 2.0 mg.L^−1): less than 15%; MAR (malformation rate) (zebrafish embryos; 1 mg/mL): 5% ^a; MOR (mortality rate) (zebrafish embryos; 1 mg/mL): 0%; MAR (malformation rate) (zebrafish embryos; 1.5 mg/mL): 10% ^a; MOR (mortality rate) (zebrafish embryos; 1.5 mg/mL): 0%; MAR (malformation rate) (zebrafish embryos; 2 mg/mL): 15% ^a; MOR (mortality rate) (zebrafish embryos; 2 mg/mL): 0%
COC1=CC2C(=Nc3nnc(-c4ccc([N+](=O)[O-])cc4)s3)c3ccccc3NC2C=C1 (stereo not drawn) [6d, 7-methoxy-N-(5-(4-nitrophenyl)-1,3,4-thiadiazol-2-yl)-10,10a-dihydroacridin-9(8aH)-imine]	26.7 ± 3.35	258 to 260	> 100	> 100	> 100							> 100	> 100	

Continued, in another order:

IC50 ([1]; Homo sapiens, MGC-803, MTT) [µM]	melting point [°C]	IC50 ([2]; Homo sapiens) [µM]	IC50 ([3]; Homo sapiens) [µM]	IC50 ([6]; Homo sapiens) [µM]	Structure (SMILES)	IC50 ([1]; MTT) [µM]	IC50 [2] [µM]	IC50 [3] [µM]	IC50 [5] [µM]	IC50 [6] [µM]	IC50 [7] [µM]	IC50 ([5]; Homo sapiens, Fibroblast) [µM]	IC50 ([7]; Homo sapiens) [µM]	further results
12.3 ± 1.96	276 to 278	55.7 ± 3.28	13.9 ± 1.37	40.3 ± 2.19	CC1=CC2C(=Nc3nnc(-c4ccncc4)s3)c3ccccc3NC2C=C1 (stereo not drawn) [6f, 7-methyl-N-(5-(pyridin-4-yl)-1,3,4-thiadiazol-2-yl)-10,10a-dihydroacridin-9(8aH)-imine]							45.4 ± 2.18	37.2 ± 2.12	
9.01 ± 1.32	294 to 296	25.9 ± 1.83	19.3 ± 1.05	31.2 ± 3.27	CC1=CC2C(=Nc3nnc(-c4ccccc4)s3)c3ccccc3NC2C=C1 (stereo not drawn) [6g, 7-methyl-N-(5-phenyl-1,3,4-thiadiazol-2-yl)-10,10a-dihydroacridin-9(8aH)-imine]	9.95 ± 1.03						76.5 ± 2.79	> 100	area of blood vessels ([4]; zebrafish embryos): could reduce the area of blood vessels
13 ± 1.89	258 to 260	13.9 ± 1.83	15.5 ± 1.98	48.5 ± 3.06	CC1=CC2C(=Nc3nnc(-c4ccc(Cl)cc4)s3)c3ccccc3NC2C=C1 (stereo not drawn) [6j, 7-methyl-N-(5-(4-chlorophenyl)-1,3,4-thiadiazol-2-yl)-10,10a-dihydroacridin-9(8aH)-imine]							56.2 ± 3.16	51.2 ± 3.09	

Reference: publication PMC9820444, “Design and Synthesis of Acridine-Triazole and Acridine-Thiadiazole Derivatives and Their Inhibitory Effect against Cancer Cells” (International Journal of Molecular Sciences, 2022)
